Measurements reported in patent US9278956B1, “Small-molecule inhibitors of Rac1 in metastatic cancer cells” (University of Puerto Rico, priority 2012, dated 2016).
Read-outs that look alike come from different tables or passages of the source.

Experiments:
[1] = tested on: Rac; settings: cited from earlier work
[2] = tested on: Rac; assay: Rac.GTP pull-down (GST-PAK1 p21 binding domain), MDA-MB-435 cells; format: cell-based, human
Method: (§1) Rho, Rac, and Cdc42 activities were analyzed from MDA-MB-435 cell lysates by pulldown assays using GST-Rho binding domain from Rhotekin to isolate active GTP bound Rho, and a GST-p21 binding domain of PAK1 to isolate active Rac.GTP or Cdc42.GTP. Active and total Rho GTPases were identified by western blotting with specific antibodies: anti RhoA, anti Rac (1,2,3), anti Rac3, or anti Cdc42 (Cell Signaling Technology, Inc., Danvers, Mass.).
(§2) Cell lysates or pulldowns were western blotted using routine laboratory procedures. Anti-RhoA, -Rac (1,2,3), -Cdc42, -p-PAK^Thr423 antibodies were from Cell Signaling Technology, Inc., Danvers, Mass. Anti Vav2 was from Zymed, San Francisco, Calif.; and Rac3, PAK1, Tiam-1, and Trio antibodies were from Santa Cruz Biotechnology, Inc., Santa Cruz, Calif.

[3] = tested on: Rac; assay: Rac.GTP pull-down (GST-PAK1 p21 binding domain), MDA-MB-231 cells; format: cell-based, human; settings: read-out: IC50 for inhibition of Rac activity
Method: as §1, §2

[4] = target: T1, Rac3 (Homo sapiens, UniProt P60763); assay: Rac3-GTP pull-down, MDA-MB-435 cells; format: cell-based
T1 construct: endogenous in cells; host or cells: MDA-MB-435
Method: as §1, §2

[5] = target: T2, Cdc42 (Homo sapiens, UniProt P60953); assay: Cdc42-GTP pull-down, MDA-MB-435 cells; format: cell-based
T2 construct: endogenous in cells; host or cells: MDA-MB-435
T2 sequence (P60953 whole entry): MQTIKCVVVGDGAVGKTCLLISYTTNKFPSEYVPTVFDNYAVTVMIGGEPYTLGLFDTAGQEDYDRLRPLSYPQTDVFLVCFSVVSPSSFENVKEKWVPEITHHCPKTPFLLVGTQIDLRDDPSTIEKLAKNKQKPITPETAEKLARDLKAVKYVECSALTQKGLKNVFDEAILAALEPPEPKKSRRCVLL
Method: as §1, §2

[6] = target: T3, RhoA (Homo sapiens, UniProt P61586); assay: RhoA-GTP pull-down (GST-Rhotekin Rho binding domain), MDA-MB-435 cells; format: cell-based; settings: 2, 4, 5, or 10 μM
T3 construct: endogenous in cells; host or cells: MDA-MB-435
T3 sequence (P61586 whole entry, the tested form may be a part): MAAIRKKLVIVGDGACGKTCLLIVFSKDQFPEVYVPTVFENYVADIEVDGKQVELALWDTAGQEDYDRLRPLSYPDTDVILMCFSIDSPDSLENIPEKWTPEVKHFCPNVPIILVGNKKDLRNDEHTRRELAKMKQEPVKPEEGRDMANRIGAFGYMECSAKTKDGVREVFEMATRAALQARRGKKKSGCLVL
Method: as §1, §2

[7] = target: T4, Vav2 association with Rac1(G15A) (Homo sapiens, UniProt P63000, G15A); assay: Precipitation of activated GEFs with GST-Rac1(G15A) from MDA-MB-435 lysates (Vav2); format: binding; settings: 1 h, p<0.005, read-out: association of Vav2 with Rac1(G15A), compared to controls
T4 construct: purchased Cell Biolabs, San Diego, Calif; host or cells: Vav2: endogenous, MDA-MB-435 lysate
Method: MDA-MB-435 cells in culture media were lysed in 1% Triton X-100, 20 mM HEPES, pH 7.4, 150 mM NaCl, 5 mM MgCl2, and protease inhibitors and processed. Equal amounts of protein from clarified lysates were incubated for 1 h at 4° C. with glutathione agarose beads conjugated to GST-Rac1(G15A) nucleotide free mutant (Cell Biolabs, San Diego, Calif.), that were pre-incubated (for 1 h) with vehicle or 2 or […] EHop-016. The beads were washed and the lysates and pulldowns immunoblotted for Tiam-1, Trio, or Vav2.

[8] = tested on: MDA-MB-231 cells; assay: Lamellipodia formation by fluorescence microscopy (Rhodamine phalloidin), MDA-MB-231; format: cell-based, human; settings: 4 μM, 24 h, control close to 100%
Method: Metastatic human cancer cell lines MDA-MB-435 and MDA-MB-231 (in DMEM with 10% FBS) were treated with vehicle (0.1% DMSO) or EHop-016 at 2 and 4 μM for 24 hrs. Cells were fixed, permeabilized, and stained with Rhodamine phalloidin to visualize F-actin.

[9] = tested on: MDA-MB-435 cells; assay: Lamellipodia formation by fluorescence microscopy (Rhodamine phalloidin), MDA-MB-435; format: cell-based, human
[10] = tested on: PAK1; assay: PAK1 activity by Western blot for phospho-Thr 423, MDA-MB-435 cells; format: cell-based, human; settings: both 2 and 4 μM, 24 h
Method: as §2
The effect of EHop-016 on Rac action was also determined by analyzing the activity of the Rac downstream effector PAK that regulates Rac-mediated lamellipodia extension and directed cell migration. […] Since Rac/PAK signaling regulates directed cell migration, the effect of EHop-016 at 0-5 μM was determined on migration of MDA-MB-435 cells by using a Transwell assay. As shown in FIG. 6(B), treatment with 2 and 5 μM EHop-016 reduced directed cell migration by ˜60% at concentrations that reduced Rac activity by ˜80% as shown in FIG. 2 and FIGS. 4A-4E. It is possible that Rac may not be the only regulator of cell migration in this highly invasive cancer cell line.

[11] = tested on: MDA-MB-435 cells; assay: Transwell cell migration assay; format: cell-based, human; settings: 2 and 5 μM, 24 h treatment, 4 h migration
Method: Quiescent MDA-MB-435 cells were treated with vehicle or varying concentrations of EHop-016 (0-5 μM) for 24 hrs. Exactly 2×10^5 cells were placed on the top well of Transwell chambers (Corning Life Sciences, Lowell, Mass.) with media containing 10% FBS in the bottom well. The number of cells that migrated to the underside of the membrane following 4 h incubation was quantified for each treatment.

[12] = tested on: MDA-MB-435 cells; assay: MTT cell viability assay, MDA-MB-435; format: cell-based, human
Method: (§3) […] Cell viability was measured using the MTT [3-(4,5-dimethylthiazol-2-yl)-2,5-diphenyl tetrazolium bromide] cell survival and proliferation kit (Millipore, Inc., Billerica, Mass.) according to manufacturer's instructions.

[13] = tested on: MCF-10A cells; assay: MTT cell viability assay, MCF-10A mammary epithelial cells; format: cell-based
Method: as §3

[14] = tested on: MDA-MB-231 cells; assay: MTT cell viability assay, MDA-MB-231; format: cell-based, human
[15] = Body weight and gross toxicity in athymic nude mice; format: in vivo; settings: oral and intraperitoneal, 1 mg/kg once a week for 9 weeks; preliminary
[16] = target: Rac1 (Homo sapiens, UniProt P63000); assay: G-LISA Rac1 activation assay on MDA-MB-435 cell lysates; parameters: selectivity among Rho GTPases: dose or concentration left out as unconfirmed
[17] = target: Tiam-1 DH/PH domain / Rac1(G15A) (Homo sapiens, UniProt P63000, G15A); assay: Interaction of purified Tiam-1 DH/PH domain with Rac1(G15A) beads
[18] = target: Trio (Homo sapiens, UniProt O75962); settings: cited from earlier work
[19] = target: Rac (Homo sapiens, UniProt P63000); settings: cited from earlier work
[20] = tested on: Rac; settings: fibroblasts; read-out: IC50 as Rac inhibitor in fibroblasts; cited from earlier work

O=c1cc(CN2CCOCC2)occ1OCCCCCSc1ccnc2cc(C(F)(F)F)ccc12 [EHT 1864]
concentration interfering with Rac-downstream effector interaction [1]: 10 to 50 µM | effective concentration as Rac inhibitor [1]: 10 µM

CCn1c2ccccc2c2cc(Nc3ccnc(NCCCN4CCOCC4)n3)ccc21 [EHop-016, N^4-(9-Ethyl-9H-carbazol-3-yl)-N2-(3-morpholin-4-yl-propyl)-pyrimidine-2,4-diamine]
inhibition of Rac activity ([2]; 2 μM): 79% | inhibition of Rac activity ([2]; 4 μM): 93% | IC50 [3]: ~3000 nM | inhibition at 1 µM [4]: 58% | effect on Cdc42 activity ([5]; 2 or 4 μM): did not affect | inhibition at 5 µM ([5]; MDA-MB-435, 5 μM): 28% | inhibition at 10 µM ([5]; MDA-MB-435, 10 μM): 74% | increase of RhoA activity [6]: ~1.3 fold | remaining activity at 4 µM [7]: ~50% | cells that extended lamellipodia [8]: ~30% | effect on extension of filopodia ([9]; 2 and 4 μM): did not affect | cells that extended lamellipodia ([9]; both 2 and 4 μM, 24 h, MDA-MB-435, control close to 100%): ~30% | effect on PAK activity (phospho-Thr 423 PAK1) [10]: dramatically inhibits | reduction of directed cell migration [11]: ~60% | decrease in cell number compared to controls ([12]; 5 μM, MDA-MB-435, only a trend): ~30% | cell viability remaining ([12]; 10 μM, MDA-MB-435): ~50% | effect on cell viability ([12]; 25 μM, MDA-MB-435): significant reduction | effect on cell viability ([12]; 1 or 2 μM, MDA-MB-435): did not significantly affect | effect on cell viability ([12]; low concentrations (<5 μM)): does not affect | decrease in cell number compared to controls ([13]; 5 μM, MCF-10A, only a trend): ~30% | cell viability remaining ([13]; 10 μM, MCF-10A): ~50% | effect on cell viability ([13]; 25 μM, MCF-10A): significant reduction | effect on cell viability ([13]; 1 or 2 μM, MCF10A): did not significantly affect | effect on cell viability ([14]; 25 μM): significant reduction | effect on cell viability ([14]; 1 or 2 μM): did not significantly affect | body weight and gross toxicity [15]: no change in body weight or gross indications of toxicity | potency relative to other currently available Rac inhibitors [16]: 10-50 times | selectivity among Rho GTPases [16]: specific for Rac1 and Rac3 | reduction of Rac activity ([16]; 2 and 5 μM): ~80% | potency relative to NSC23766 ([16]; MDA-MB-435 cells): approximately 100 times | IC50 ([16]; read-out: IC50 for inhibition of Rac1 activity, MDA-MB-435 cells, 24 h treatment): 1100 nM | concentration at which Tiam-1 DH/PH-Rac1(G15A) interaction is inhibited [17]: 40 µM | effect on interaction of Tiam-1 DH/PH domain with Rac1(G15A) ([17]; 5 μM): did not affect | inhibition at 50 µM ([17]; read-out: inhibition of Tiam-1/Rac1(G15A) interaction): 64%

Cc1cc(/C=c2/sc3nc4ccccc4n3c2=O)c(C)n1-c1ccccc1 [ITX3]
effective concentration [18]: 50 to 100 µM

O=C(C#Cc1ccccc1)c1cccc([N+](=O)[O-])c1 [MLS000532223]
effect on GTP binding to Rac [19]: prevents GTP binding to Rac

CCN(CC)CCCC(C)Nc1nc(C)cc(Nc2ccc3nc(C)cc(N)c3c2)n1 (stereo not shown) [NSC23766, reference compound]
effect on lamellopodia formation ([9]; 50 μM, MDA-MB-435): no significant effect | IC50 [20]: 50000 to 100000 nM
